Data set [1] addresses T1, P450 1B1 (Homo sapiens, UniProt Q16678).
T1 sequence (Q16678 1-543): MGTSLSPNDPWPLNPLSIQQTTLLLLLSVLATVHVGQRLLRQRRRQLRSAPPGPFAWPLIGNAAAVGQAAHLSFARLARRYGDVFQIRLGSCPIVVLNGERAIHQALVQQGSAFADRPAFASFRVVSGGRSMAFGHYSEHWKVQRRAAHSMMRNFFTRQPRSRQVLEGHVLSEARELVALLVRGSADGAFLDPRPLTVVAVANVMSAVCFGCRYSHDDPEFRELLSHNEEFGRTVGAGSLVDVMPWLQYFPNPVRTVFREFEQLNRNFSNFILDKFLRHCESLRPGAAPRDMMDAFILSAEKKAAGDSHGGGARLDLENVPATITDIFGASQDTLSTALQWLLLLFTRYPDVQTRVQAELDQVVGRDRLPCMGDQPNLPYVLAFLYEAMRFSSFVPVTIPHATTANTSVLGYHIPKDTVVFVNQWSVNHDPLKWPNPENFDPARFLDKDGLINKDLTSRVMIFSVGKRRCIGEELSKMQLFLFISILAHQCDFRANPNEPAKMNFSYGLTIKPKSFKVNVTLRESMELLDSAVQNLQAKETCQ
Kind of data set: Inhibition of P450 1B1-dependent EROD activity. The format is biochemical.

Data set [2] addresses T2, P450 2A13 (Homo sapiens, UniProt Q16696).
T2 sequence (Q16696 1-494): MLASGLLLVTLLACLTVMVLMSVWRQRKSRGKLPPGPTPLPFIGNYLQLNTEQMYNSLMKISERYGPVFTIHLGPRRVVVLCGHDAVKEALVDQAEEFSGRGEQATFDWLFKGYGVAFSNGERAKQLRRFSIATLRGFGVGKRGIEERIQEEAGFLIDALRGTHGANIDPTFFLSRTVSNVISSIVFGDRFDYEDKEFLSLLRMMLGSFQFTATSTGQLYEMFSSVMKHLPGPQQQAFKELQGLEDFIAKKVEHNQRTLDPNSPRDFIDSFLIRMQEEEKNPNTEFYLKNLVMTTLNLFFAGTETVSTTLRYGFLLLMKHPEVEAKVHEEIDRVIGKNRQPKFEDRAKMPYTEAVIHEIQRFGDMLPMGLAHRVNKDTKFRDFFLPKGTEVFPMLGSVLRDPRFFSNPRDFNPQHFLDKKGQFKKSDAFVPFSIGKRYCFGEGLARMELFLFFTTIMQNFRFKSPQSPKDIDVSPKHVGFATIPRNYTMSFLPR
Nature of the data set: Inhibition of P450 2A13-dependent coumarin 7-hydroxylation. Format: biochemical.

Data set [3] addresses T2, P450 2A13. Format: biochemical.
The target of another data set is T3, P450 1A1 (Homo sapiens, UniProt P04798).
T3 sequence (P04798 1-512): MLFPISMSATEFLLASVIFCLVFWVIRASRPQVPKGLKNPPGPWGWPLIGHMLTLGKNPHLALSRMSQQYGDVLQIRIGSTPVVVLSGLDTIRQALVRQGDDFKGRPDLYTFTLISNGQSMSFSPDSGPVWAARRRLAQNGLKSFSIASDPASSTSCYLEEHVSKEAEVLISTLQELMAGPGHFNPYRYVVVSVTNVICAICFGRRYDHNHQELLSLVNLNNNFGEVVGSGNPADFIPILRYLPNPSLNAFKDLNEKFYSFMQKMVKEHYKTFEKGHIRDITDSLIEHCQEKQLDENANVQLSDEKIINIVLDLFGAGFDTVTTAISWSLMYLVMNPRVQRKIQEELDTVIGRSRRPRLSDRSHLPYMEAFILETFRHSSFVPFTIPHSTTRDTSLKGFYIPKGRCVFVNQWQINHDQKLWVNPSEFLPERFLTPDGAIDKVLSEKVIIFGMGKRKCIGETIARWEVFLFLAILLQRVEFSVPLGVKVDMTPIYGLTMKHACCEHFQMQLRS
Nature of the data set: Spectral binding titration with purified recombinant P450 1A1. The note with it: for ΔAmax/Ks / ΔAmax: Reverse Type I binding, 1 µM P450; for ΔAmax: means ± SE.

In a further data set the target is T4, P450 1A2 (Homo sapiens, UniProt P05177).
T4 sequence (P05177 1-516): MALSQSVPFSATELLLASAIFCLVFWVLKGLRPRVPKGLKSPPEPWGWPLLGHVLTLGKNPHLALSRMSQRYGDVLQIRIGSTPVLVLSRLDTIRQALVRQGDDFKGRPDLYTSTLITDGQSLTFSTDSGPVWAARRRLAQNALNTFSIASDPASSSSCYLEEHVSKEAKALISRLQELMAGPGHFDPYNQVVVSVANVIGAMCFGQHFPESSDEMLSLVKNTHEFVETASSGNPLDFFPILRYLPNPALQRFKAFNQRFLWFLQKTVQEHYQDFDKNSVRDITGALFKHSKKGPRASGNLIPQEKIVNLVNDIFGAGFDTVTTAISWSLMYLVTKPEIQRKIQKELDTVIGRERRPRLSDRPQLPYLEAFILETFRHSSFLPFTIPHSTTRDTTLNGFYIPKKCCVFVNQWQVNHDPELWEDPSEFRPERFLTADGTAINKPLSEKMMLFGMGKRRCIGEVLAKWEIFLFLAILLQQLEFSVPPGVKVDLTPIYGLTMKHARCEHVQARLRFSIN
Nature of the data set: Spectral binding titration with purified recombinant P450 1A2. Particulars: for ΔAmax/Ks / ΔAmax: Reverse Type I binding, 1 µM P450; for ΔAmax: means ± SE.

For data set [4], the target named is T1, P450 1B1. Kind of data set: Spectral binding titration with purified recombinant P450 1B1. Particulars: for ΔAmax/Ks / ΔAmax: Reverse Type I binding, 1 µM P450; for ΔAmax: means ± SE.
A further data set deals with T5, P450 2A6 (Homo sapiens, UniProt P11509).
T5 sequence (P11509 1-494): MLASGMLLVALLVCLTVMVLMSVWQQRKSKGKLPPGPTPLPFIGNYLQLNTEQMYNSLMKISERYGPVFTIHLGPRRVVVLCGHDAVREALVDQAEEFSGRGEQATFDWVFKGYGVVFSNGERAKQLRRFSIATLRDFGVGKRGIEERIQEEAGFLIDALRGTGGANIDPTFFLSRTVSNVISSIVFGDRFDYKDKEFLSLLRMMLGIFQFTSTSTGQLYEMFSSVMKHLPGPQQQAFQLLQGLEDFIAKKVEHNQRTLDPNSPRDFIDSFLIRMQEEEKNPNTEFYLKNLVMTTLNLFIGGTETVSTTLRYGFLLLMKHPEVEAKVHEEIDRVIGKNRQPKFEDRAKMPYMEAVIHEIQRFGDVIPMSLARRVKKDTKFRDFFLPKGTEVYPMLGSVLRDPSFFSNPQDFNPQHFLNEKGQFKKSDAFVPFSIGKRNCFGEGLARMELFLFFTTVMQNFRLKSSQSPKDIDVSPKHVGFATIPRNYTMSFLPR
Kind of data set: Spectral binding titration with purified recombinant P450 2A6. The note with it: for ΔAmax/Ks / ΔAmax: Type I binding, 1 µM P450; for ΔAmax: means ± SE.

From publication PMC3156385 (Chemical research in toxicology, 2011) come the findings set out here.

SMILES strings stand for the structures. Where two headings read alike, the source gives them in different places.

Regarding `N#C[Se]Cc1cccc(C[Se]C#N)c1` [m-XSC, 1,3-phenylenebis(methylene)selenocyanate], at P450 1B1 [1] (m-XSC 0.033, 0.083, 0.33 µM, preincubation 2 and 4 min with NADPH), the “metabolism-dependent inhibition of P450 1B1 (EROD)” value is on record as “no metabolism-dependent inhibition”. This compound returned a half-inhibitory concentration (IC50) against P450 2A13 [2] of 220 ± 31 nM. Also, the “effect of preincubation on inhibition potency of coumarin 7-hydroxylation” value on P450 2A13 [3] (preincubation 15 min with NADPH vs without) is listed as “did not change the inhibition potencies”. Further, the “coumarin 7-hydroxylation, % of control” value is reported as 54 % of control at P450 2A13 [3] (with preincubation 15 min with NADPH, 1.0 µM coumarin, BSC 1.2 µM, m-XSC 0.22 µM) and 56 % of control on P450 2A13 [3] (without preincubation, 1.0 µM coumarin, BSC 1.2 µM, m-XSC 0.22 µM). At P450 2A13 [3] (without preincubation, 1.0 µM coumarin, BSC 1.2 µM, m-XSC 0.22 µM, control 1.04), the “coumarin 7-hydroxylation” value was 0.59 nmol/min/nmol P450. Besides, the Kd at P450 1A1 stood at 30 ± 4.5 µM; at P450 1A2, 13 ± 1.9 µM; at P450 1B1 [4] it was 5.7 ± 1 µM; on P450 2A6 it was 5.7 ± 0.52 µM. For the same compound, the ΔAmax/Ks was 0.60 × 10^−3 at P450 1A1, 0.46 × 10^−3 at P450 1A2, 3.70 × 10^−3 on P450 1B1 [4] and 6.50 × 10^−3 at P450 2A6. For the same compound, the ΔAmax is given as 18 ± 1.2 × 10^−3 at P450 1A1, 5.8 ± 0.25 × 10^−3 at P450 1A2, 21 ± 1.0 × 10^−3 at P450 1B1 [4] and 37 ± 0.88 × 10^−3 at P450 2A6. The “type of binding spectra” value on P450 1B1 [4] (difference spectra) is “Reverse Type I”.

Take `N#C[Se]Cc1ccccc1` [BSC, benzyl selenocyanate]: the IC50 was found to be 270 ± 31 nM on P450 1B1 [1] and 1200 ± 190 nM at P450 2A13 [2]. Moreover, on P450 2A13 [3], the “effect of preincubation on inhibition potency of coumarin 7-hydroxylation” value is given as “did not change the inhibition potencies”. Besides, the Kd at P450 1A1 came out at 23 ± 4.1 µM; at P450 1A2 it was 11 ± 2.3 µM; on P450 1B1 [4], 5.3 ± 0.96 µM; on P450 2A6, 2 ± 0.14 µM. Moreover, the ΔAmax/Ks is on record as 0.61 × 10^−3 at P450 1A1, 0.88 × 10^−3 at P450 1A2, 3.60 × 10^−3 on P450 1B1 [4] and 32.00 × 10^−3 at P450 2A6. Further, the ΔAmax is 14 ± 1.0 × 10^−3 on P450 1A1, 9.5 ± 0.57 × 10^−3 on P450 1A2, 19 ± 0.11 × 10^−3 on P450 1B1 [4] and 66 ± 0.93 × 10^−3 on P450 2A6. Besides, the “type of binding spectra” value at P450 1A1 (difference spectra) is “Reverse Type I”; at P450 2A6 (difference spectra) it was “Type I”.
